Data as given in publication PMC2770570 (BMC Cancer, 2009).
“Also recorded” adds a separate entry of the source. Structures can show the parent of a compound that is named as a salt.

Key:
KAT-18 cells [1] = assay: Necrosis (trypan blue) in KAT-18 cells; type: cell-based, human; settings: data not shown
Experimental: Necrosis was recorded as the number of positive trypan blue cells in any cell growth assay.

KAT-18 cells [2] = assay: Apoptosis (TUNEL) in KAT-18 cells; type: cell-based, human; settings: 72 h, data not shown
Experimental: Cells were harvested after 72 h of drug treatment, and TUNEL assays conducted according to manufacturer's recommendations.

WRO 82-1 cells = assay: Cell proliferation assay (cell number), WRO 82-1 follicular thyroid cancer cells; type: cell-based, human; settings: 10^-6 M, 72 h (Fig. 7B)
Experimental: (§1) The ATC cell line, KAT-18, was generously provided by Dr. K.B. Ain, The University of Kentucky, Lexington, KY) and the FTC cell line, WRO 82-1, was established by Dr. G. Juillard (University of California at Los Angeles, CA). The poorly differentiated papillary thyroid carcinoma cell line, KTC-1 [31], was a generous gift of Dr. James A. Fagin (Memorial Sloan Kettering Cancer Center, New York, NY). The KAT-18 cells were grown in phenol-red free RPMI 1640 media (GIBCO/Invitrogen, Carlsbad, CA), and the WRO 82-1 and KTC-1 cells were grown in standard RPMI 1640 media supplemented with 1% non-essential amino acids. All media were supplemented with 10% fetal calf serum, 2 mM L-glutamine, 1.2% sodium bicarbonate, and antibiotics (5,000 Units/ml penicillin, 5 mg/ml streptomycin, 10 mg/ml neomycin). The cell cultures were maintained in a humidified atmosphere of 5% CO2 at 37°C. […]
(§2) Cells were seeded at equivalent amounts into 6- or 24-well plates (Falcon) and counted 24 h later (time 0) to determine plating efficiency. […] Cells were harvested by trypsinization with 0.25% trypsin/0.53 mM EDTA, centrifuged, and counted with a hemacytometer. Cell viability was determined by trypan blue staining. At least two aliquots per well, and 2-4 wells/treatment, were counted for each experiment. […]

KTC-1 cells = assay: Cell proliferation assay (cell number), KTC-1 papillary thyroid cancer cells; type: cell-based, human; settings: 10^-6 M, 72 h (Fig. 6B)
Experimental: as §1, §2

KAT-18 cells [3] = assay: DNA synthesis (BrdU incorporation) in KAT-18 cells; type: cell-based, human; settings: 10^-6 M, 72 h; 30 μM BrdU 3 h prior to fixing (Fig. 5)
Experimental: To examine DNA synthesis, KAT-18 cells were seeded onto 22 mm diameter coverglasses placed in 6-well plates (3 × 10^3 cells/coverglass), and treated with compounds for 72 h; media and drugs were replaced daily. Three h prior to fixing cells, 30 μM BrdU (Sigma Chemicals, Indianapolis, IN) was added to cultures. Cells were rinsed, fixed in 10% neutral buffered formalin for 10 min, and stained with antibodies to BrdU (anti-BrdU-BOD, Roche/Invitrogen). At least 1000 cells/treatment using at least 2 coverglasses/treatment were counted, and the number of positive cells recorded. Labeling indexes were calculated as the number of positive stained cells divided by total cells.

KAT-18 cells [4] = assay: Growth of KAT-18 cells transfected with OGFr siRNA or scrambled siRNA; type: cell-based, human
Experimental: (§3) The OGFr-targeted siRNAs (antisense:5'-[…]-3'; sense: 5'-[…]-3') were designed and obtained as ready-annealed, purified duplex probes from Ambion (Austin, TX). For transfection, 5 × 10^4 KAT-18 cells per well were seeded in 6-well plates containing 1 ml of serum-containing media without antibiotics. In each well, 20 nM OGFr-siRNA or control siRNA solutions in serum-free media were added. […] At 72 h cells were collected for computing growth. Two independent experiments were conducted. The scrambled siRNAs were purchased from Ambion.

KAT-18 cells [5] = assay: Cell proliferation assay (cell number), KAT-18 anaplastic thyroid cancer cells; type: cell-based, human
Experimental: The ATC cell line, KAT-18, was generously provided by Dr. K.B. Ain, The University of Kentucky, Lexington, KY) and the FTC cell line, WRO 82-1, was established by Dr. G. Juillard (University of California at Los Angeles, CA). The poorly differentiated papillary thyroid carcinoma cell line, KTC-1 [31], was a generous gift of Dr. James A. Fagin (Memorial Sloan Kettering Cancer Center, New York, NY). […] The cell cultures were maintained in a humidified atmosphere of 5% CO2 at 37°C. All cell lines were free of Mycoplasma and confirmed by single nucleotide polymorphism array analysis to be unique follicular cell-derived thyroid cancer cell lines.
Media and compounds were replaced daily. […] Cell viability was determined by trypan blue staining. At least two aliquots per well, and 2-4 wells/treatment, were counted for each experiment. Two to five experiments were conducted for each measure performed.

OGFr mRNA = assay: Northern blot analysis of OGFr after siRNA transfection of KAT-18 cells; type: cell-based, human; settings: 20 nM siRNA; OGFr/GAPDH ratio by densitometry (Fig. 4A)
Experimental: as §3
Some cultures were transfected with siRNAs and then harvested 72 h later for Northern analysis. Total RNA was extracted using the Paris Kit (Ambion), separated on an agarose gel, and mRNA transferred to nylon membrane (Immobilon, Bio-Rad Laboratories, Hercules, CA). Membranes were probed with ^32P-dCTP- OGFr cDNA. To determine equal loading, blots were stripped and reprobed with radiolabeled GAPDH and optical density of each band was determined by densitometry and analyzed by QuickOne (Bio-Rad Laboratories). Each value was normalized to GAPDH from the same blot.

OGFr protein = assay: Semi-quantitative immunocytochemistry of OGFr protein after siRNA transfection of KAT-18 cells; type: cell-based, human; settings: 72 h after transfection; mean staining intensity, approximately 50 cells/group (Fig. 4B)
Experimental: as §3
KAT-18 cells were seeded onto coverglasses, transiently transfected with OGFr-siRNA, and 72 h later stained with polyclonal antibodies to OGFr in order to detect the level of protein knockdown. OGFr protein levels were assessed by semi-quantitative immunocytochemistry whereby images were taken at the same exposure time with special care not to photobleach samples. The mean intensity of staining was determined for approximately 50 cells/group.

OGFr = biological target: T1, OGFr (Homo sapiens, UniProt Q9NZT2); assay: receptor binding assay
T1 chain: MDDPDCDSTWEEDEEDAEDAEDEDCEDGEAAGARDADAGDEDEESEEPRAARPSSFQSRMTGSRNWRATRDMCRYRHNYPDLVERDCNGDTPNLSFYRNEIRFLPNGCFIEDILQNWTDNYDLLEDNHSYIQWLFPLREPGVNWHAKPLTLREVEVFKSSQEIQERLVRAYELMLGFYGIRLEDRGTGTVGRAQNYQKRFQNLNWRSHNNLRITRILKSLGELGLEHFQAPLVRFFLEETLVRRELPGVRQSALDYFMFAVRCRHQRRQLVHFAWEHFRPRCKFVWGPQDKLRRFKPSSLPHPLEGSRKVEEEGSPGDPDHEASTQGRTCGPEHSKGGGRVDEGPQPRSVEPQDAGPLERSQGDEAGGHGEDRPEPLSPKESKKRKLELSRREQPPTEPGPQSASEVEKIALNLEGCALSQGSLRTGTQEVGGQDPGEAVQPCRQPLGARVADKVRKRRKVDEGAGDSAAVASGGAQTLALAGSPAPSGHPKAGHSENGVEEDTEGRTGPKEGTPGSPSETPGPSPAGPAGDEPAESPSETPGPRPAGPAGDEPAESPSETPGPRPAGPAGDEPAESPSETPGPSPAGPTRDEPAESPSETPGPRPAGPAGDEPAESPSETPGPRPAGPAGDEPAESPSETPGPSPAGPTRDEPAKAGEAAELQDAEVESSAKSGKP

[6] = 10^-6 M NTX, cultures receiving OGFr siRNA (Fig. 4C)
[7] = 10^-6 M, 72 h, opioid specificity experiment (Fig. 3A)
[8] = 10^-6 M OGF, cells transfected with OGFr siRNA (Fig. 4C)

## O=C1CC[C@@]2(O)[C@H]3Cc4ccc(O)c5c4[C@@]2(CCN3CC2CC2)[C@H]1O5 [NTX, naltrexone]
KAT-18 cells [1]
  necrosis: negligible
  number of necrotic cells vs control: No differences in the number of apoptotic or necrotic cells
KAT-18 cells [2]
  apoptosis relative to positive control samples: negligible
  number of apoptotic cells vs control: No differences in the number of apoptotic or necrotic cells
WRO 82-1 cells
  increase in cell number from control: 30%
KTC-1 cells
  increase in cell number from control: 30%
KAT-18 cells [3]
  increase in DNA synthesis (BrdU) vs control: 25%
KAT-18 cells [4]; [6]
  cell number vs OGFr siRNA plus vehicle: did not differ from cells receiving OGFr siRNA plus vehicle
  increase in cell number vs wildtype cells: 70%
KAT-18 cells [4]; 10^-6 M NTX, untreated and scrambled siRNA cultures (Fig. 4C)
  increase in cell number vs wildtype cells receiving vehicle: 32%

## CN1CC[C@]23c4c5ccc(O)c4O[C@H]2[C@@H](O)C=C[C@H]3[C@H]1C5 [morphine, morphine sulfate]
KAT-18 cells [5]; [7]
  effect on cell proliferation vs control: Only OGF altered cell proliferation significantly

## C=CCN1CC[C@]23c4c5ccc(O)c4O[C@H]2C(=O)CC[C@@]3(O)[C@H]1C5 [naloxone]
KAT-18 cells [5]; KAT-18 cells
  effect of naloxone on the OGF-induced depression in cell acquisition: blocked the depression in cell acquisition
KAT-18 cells [5]; naloxone 10^-6 M with or without OGF 10^-6 M, 72 h (Fig. 2C)
  change in cell number vs control: no change in cell number; also recorded: did not have any influence on cell replication

## [D-Ala^2, MePhe^4, Glycol^5]-enkephalin [DAMGO]
KAT-18 cells [5]; [7]
  effect on cell proliferation vs control: Only OGF altered cell proliferation significantly

## [D-Pen^2,5]-enkephalin [DPDPE]
KAT-18 cells [5]; [7]
  effect on cell proliferation vs control: Only OGF altered cell proliferation significantly

## [Met^5]-enkephalin [OGF]
KAT-18 cells [1]
  necrosis: negligible
  number of necrotic cells vs control: No differences in the number of apoptotic or necrotic cells
KAT-18 cells [2]
  number of apoptotic cells vs control: No differences in the number of apoptotic or necrotic cells
WRO 82-1 cells
  reduction in cell number from control: 17%
KAT-18 cells [5]; 10^-4 M, 72 h, dose-response (Fig. 2A)
  reduction in cell number from control: 38%
KAT-18 cells [5]; 10^-5 M, 72 h, dose-response (Fig. 2A)
  reduction in cell number from control: 13%
KAT-18 cells [5]; 10^-6 M continuously, at 96 h (Fig. 2D)
  reduction in cell number from control: 16%
KAT-18 cells [5]; 10^-6 M continuously, at 120 h (Fig. 2D)
  reduction in cell number from control: 28%
KAT-18 cells [5]; 10^-6 M for 72 h, then media without OGF, at 96 h (Fig. 2D)
  reduction in cell number from control: 6%
KAT-18 cells [5]; 10^-6 M for 72 h, then media without OGF, at 120 h (Fig. 2D)
  reduction in cell number from control: 8%
KAT-18 cells [5]; 10^-6 M, 72 h, dose-response (Fig. 2A)
  reduction in cell number from control: 14%
KAT-18 cells [5]; 10^-6 M, 72 h, naloxone experiment (Fig. 2C)
  reduction in cell number from control: 20%
KAT-18 cells [5]; [7]
  decrease in cell number from control: 33%
KAT-18 cells [5]; 10^-6 M, 72 h, reversibility study (Fig. 2D)
  reduction in cell number from control: 22%
KAT-18 cells [5]; 10^-7 M, 72 h, dose-response (Fig. 2A)
  effect on cell number vs control: no significant effect on cell number
KAT-18 cells [5]; KAT-18 cells
  duration of growth repression in presence of drug: up to 120 h
  time to observed growth repression after initiating drug exposure: ≤ 24 h
KAT-18 cells [5]; KAT-18 cells, abstract
  maximum reduction in cell number ("by as much as"): ≤ 38%
KTC-1 cells
  reduction in cell number from control: 31%
KAT-18 cells [3]
  decrease in proportion of BrdU labeled cells vs control: 28%
KAT-18 cells [4]; [8]
  cell number, OGF vs sterile water: did not differ in cell number from each other
  effect on cell number: no effect
KAT-18 cells [4]; 10^-6 M OGF, untransfected cultures and those transfected with scrambled siRNAs (Fig. 4C)
  reduction in cell number: 30%

## antisense:5'-uagaaacucagguuuggcg-3'; sense: 5'-cgccaaaccugaguuucua-3' (sense CGCCAAACCUGAGUUUCUA; antisense UAGAAACUCAGGUUUGGCG; chemistry not fully specified) [OGFr siRNA, OGFr-targeted siRNAs, ready-annealed, purified duplex probes from Ambion]
OGFr mRNA
  OGFr level relative to cells treated with vehicle only: less than 25%
KAT-18 cells [4]; 20 nM siRNA, 72 h (Fig. 4C)
  increase in cell number vs vehicle only and scrambled siRNA: approximately 70%
KAT-18 cells [4]; KAT-18 cells
  effectiveness of OGFr siRNA knockdown in increasing cell number relative to NTX: over twice as effective
OGFr protein
  decrease in OGFr protein expression relative to untransfected and scrambled siRNA cells: 47%

## dynorphin A1-8 (YGGFLRRI; Dynorphin A(1-8); UniProt P01213 207-214, looked up)
KAT-18 cells [5]; [7]
  effect on cell proliferation vs control: Only OGF altered cell proliferation significantly

## endomorphin 1
KAT-18 cells [5]; [7]
  effect on cell proliferation vs control: Only OGF altered cell proliferation significantly

## endomorphin 2
KAT-18 cells [5]; [7]
  effect on cell proliferation vs control: Only OGF altered cell proliferation significantly

## β-endorphin (YGGFMTSEKSQTPLVTLFKNAIIKNAYKKGE; Beta-endorphin; UniProt P01189 237-267, looked up)
KAT-18 cells [5]; [7]
  effect on cell proliferation vs control: Only OGF altered cell proliferation significantly

## YGGFM [opioid growth factor (OGF)]
OGFr
  Kd: 3.5 nM
